Data on one substance can be found in patent EP0320366A1, “Monoclonal antibodies against phospholipase A2 from the venom of snakes of the families Elapides and Hidrophides, methods for their preparation and their use in detecting poisoning caused by these snake families” (COMMISSARIAT A L'ENERGIE ATOMIQUE, priority 1987, dated 1989).

Assay [1] addresses T1, notexine (PLA₂ du venin de Notechis scutatus scutatus) en présence d'anticorps MN₁ (Notechis scutatus scutatus, UniProt P00608).
T1 sequence (P00608 1-119): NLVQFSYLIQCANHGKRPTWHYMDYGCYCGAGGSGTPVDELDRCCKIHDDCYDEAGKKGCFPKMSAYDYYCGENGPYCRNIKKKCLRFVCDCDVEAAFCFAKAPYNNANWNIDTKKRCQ
Nature of the assay: Enzymatic activity of notexin pre-incubated with monoclonal antibody MN₁, by pH-stat titration and Lineweaver-Burk analysis. It is filed as biochemical. Conditions: same substrate and conditions; MN₁ in 10-fold molar excess over notexin, pre-incubated 1 h at room temperature; read graphically; also printed as 0,034 M. As for the experimental part:
(§1) La mesure de l'activité enzymatique est réalisée à l'aide d'un appareil pH stat (Methrom). Les acides gras libérés sont titrés à pH constant (pH = 8), par une solution d'hydroxyde de Na 0,01 N à 40°C.
(§2) Le substrat est une émulsion de phosphatidylcholine (Halpert - Eaker, 1975), dans une solution de CaCl₂ 20 mM, NaCl 0,12 M, en présence de désoxycholate de sodium.
(§3) Le rapport concentration finale de phosphatidylcholine/concentration finale de désoxycholate de sodium est maintenu constant, égal à 3,7.
(§4) Les solutions initiales sont : phosphatidylcholine : 600 mM dans l'éthanol, désoxycholate de sodium : 270 mM dans H₂O. Le volume réactionnel final est de 4 ml.
(§5) Les volumes de soude ajoutés pour maintenir le pH constant sont enregistrés automatiquement en fonction du temps.
Les anticorps monoclonaux sont dialysés pendant 24 heures dans la solution de CaCl₂ utilisée pour effectuer les mesures, afin d'éviter une modification du pH du milieu réactionnel, lors de l'addition des anticorps. Ils sont incubés avec la notexine pendant une heure à température ambinate.
L'activité enzymatique de la notexine ainsi traitée, est alors mesurée.
L'analyse cinétique de la réaction enzymatique a été faite par deux méthodes : mesure de Vi et mesure de Vmax. […]

In assay [2] the target is T2, notexine (PLA₂ du venin de Notechis scutatus scutatus), notexine seule (Notechis scutatus scutatus, UniProt P00608).
T2 sequence (P00608 1-119): T1 sequence (P00608 1-119)
The assay is described as follows: Enzymatic activity of notexin by pH-stat titration of released fatty acids, Lineweaver-Burk analysis. It is filed as biochemical. To be noted: substrate: phosphatidylcholine emulsion 7,5-82,5 mM with sodium deoxycholate (ratio 3,7), CaCl₂ 20 mM, NaCl 0,12 M, pH 8, 40°C; notexin 0,5 µg/4 ml; read graphically; also printed as 0,034 M. As for the experimental part: as §1, §2, §3, §4, §5
L'analyse cinétique de la réaction enzymatique a été faite par deux méthodes : mesure de Vi et mesure de Vmax.
Pour l'étude de Vi = f( [S] ) et 1/Vi = f(1/ [S]), à concentration de notexine constante ( [Et] = 0,5 µg/4 ml), la concentration de substrat varie de 7,5 mM à 82,5 mM. La mesure est réalisée en absence et en présence d'anticorps monoclonaux polyspécifiques MN₁, en excès molaire de 10 par rapport à la notexine. […]

Take phosphatidylcholine: the Km in assay [1] and in assay [2] was 34 mM each time.

A word on the Km: it is the concentration of substrate that gives half-maximal velocity.
